Results as given in publication PMC7557582, “Broad-Spectrum Antimicrobial Activity and Improved Stability of a D-Amino Acid Enantiomer of DMPC-10A, the Designed Derivative of Dermaseptin Truncates” (Antibiotics, 2020).
In brackets after ≈: the same amount, converted by molar mass. Non-standard residues stand in square brackets, D forms with d. Residues, ends and D or L forms follow the SMILES beside them. Cha = N[C@@H](CC1CCCCC1)C(=O)O

Assays:
S. aureus (NCTC 10788) [1] = assay type: cell-based, Staphylococcus aureus
Experimental: (§1) Furthermore, the antimicrobial activity in the presence of MgCl2, CaCl2, NaCl and 10% fetal bovine serum (FBS) was investigated. In detail, 2 and 5 mM of MgCl2 and CaCl2, and 150 and 375 mM NaCl, were applied, respectively. The supplements were added into the medium that was used for diluting the bacteria suspension. Then, the diluted bacteria culture was mixed with the peptide stock solution in the 96-well plate, as mentioned above. The assay was performed three times and each assay contained 5 replicates.

[2] = tested on: K. pneumoniae (ATCC 43816); assay type: cell-based, Klebsiella pneumoniae
Experimental: (§6) Gram-positive bacteria Staphylococcus aureus (NCTC 10788) and Enterococcus faecalis (NCTC 12697) and Gram-negative bacteria Escherichia coli (NCTC 10418), Pseudomonas aeruginosa (ATCC 27853), and Klebsiella pneumoniae (ATCC 43816) were tested. […] All the bacterial strains were inoculated in Mueller Hinton broth (MHB), pH 7.4 (Oxiod, Basingstoke, UK) at 37 °C. Then, the log-phase bacteria were mixed with the peptide at the concentrations from 512 to 1 µM in two-fold dilution, in a 96 well-plate. The wells contained sterilized MHB and bacteria cultures were employed as a blank and growth control, respectively.

[3] = tested on: P. aeruginosa (ATCC 27853); assay type: cell-based, Pseudomonas aeruginosa
Experimental: as §6

[4] = tested on: healthy Galleria mellonella larvae; assay: Toxicity to larvae without infection; assay type: in vivo; conditions: highest dose (20 mg/kg), 5 days
[5] = tested on: S. aureus (NCTC 10788) biofilm; assay: Eradication of mature biofilm (crystal violet); assay type: cell-based, Staphylococcus aureus; conditions: high concentrations ranging from 32 to 128 µM, 24 h treatment at 37 °C
Experimental: (§2) The antibiofilm activity of synthetic peptides was evaluated via the inhibitory effect against the formation of biofilm and the eradication of mature biofilm, which were performed as the previously study with minor modifications. […] Then, the solution in each well was discarded. The biofilm was washed with PBS. Finally, the biofilm in each well was stained by 100 μL of 0.1% crystal violet solution and further dissolved by 30% acetic acid. The absorbance of dissolved crystal violet in each well was recorded at 595 nm. For the eradication of mature biofilm, biofilm was formed with incubation at 37 °C for 24–48 h. Then, the plate was washed with PBS and filled with the peptides which were prepared in the fresh medium. After treatment for 24 h at 37 °C, the plate was stained as mentioned above. Both assays were repeated three times, with 5 replicates each time.

trypsin = molecular target: T1, trypsin (Bos taurus, UniProt P00760); assay: Enzyme stability assay, trypsin; assay type: in vitro ADME; conditions: peptide in PBS, peptide:trypsin 100:1 (m/m), time points 0-120 min, stopped with 10% TFA, RP-HPLC peak area, three replicates
T1 construct: gene PRSS1
T1 sequence (P00760 24-246): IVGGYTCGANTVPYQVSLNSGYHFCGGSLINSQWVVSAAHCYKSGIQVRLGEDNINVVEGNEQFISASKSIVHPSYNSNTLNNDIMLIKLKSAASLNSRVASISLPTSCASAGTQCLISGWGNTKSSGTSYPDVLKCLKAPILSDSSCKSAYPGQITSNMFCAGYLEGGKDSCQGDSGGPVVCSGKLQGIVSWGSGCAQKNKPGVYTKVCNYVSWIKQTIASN
Experimental: (§3) The peptides were dissolved in phosphate-buffered saline (PBS) and mixed with the respective enzyme (trypsin and chymotrypsin) with a ratio of 100:1 (m/m). Then, 135 µl of the reaction solution was transferred into a new vial. The hydrolysis reaction was immediately terminated by adding 15 µl of 10% TFA at the different time points (0, 5, 10, 20, 40, 60, 120 min). The mixture was then analyzed by reverse-phase HPLC and respective peak areas were calculated to obtain the residual amount of peptides at different times.

E. faecalis (NCTC 12697) = assay type: cell-based, Enterococcus faecalis
Experimental: as §6

[6] = tested on: K. pneumoniae (ATCC BAA 2342); assay type: cell-based, Klebsiella pneumoniae
Experimental: as §6

[7] = tested on: K. pneumoniae (ATCC 43816) biofilm; assay: Inhibition of biofilm formation (crystal violet); assay type: cell-based, Klebsiella pneumoniae; conditions: 37 °C 24–48 h, crystal violet 595 nm
Experimental: as §2

[8] = tested on: Galleria mellonella larvae infected with K. pneumoniae (ATCC 43816); assay: Galleria mellonella larva infection model; assay type: in vivo; conditions: 20 mg/kg injected 1 h after infection, 5 days, 10 larvae per group
Experimental: The assessment of in vivo antimicrobial activity of DMPC-10B was performed using the larva of Galleria mellonella, as in the previous study, with minor modifications. The infection model was constructed by injecting 10 μL of MRSA (NCTC 12493) and K. pneumoniae (ATCC 43816) bacteria suspension (5 × 10^7 CFU/mL) which was prepared in PBS. After 1 h, each infected larva was further administered an injection of 10 μL of peptide solution at different doses of 5, 10, 20 mg/kg. The infected larva that was administered 10 μL of PBS was employed as a negative control, while 20 mg/kg of gentamicin was used as a positive control. Each group contained 10 larvae and all larvae were inspected every 24 h for 5 days (the first day was 12 h).

S. aureus (NCTC 10788) [9] = assay type: cell-based, Staphylococcus aureus; remark: listed apart in the source
Experimental: as §6

[10] = tested on: K. pneumoniae (ATCC BAA 1705); assay type: cell-based, Klebsiella pneumoniae
Experimental: as §6

E. coli (NCTC 10418) [11] = assay type: cell-based, Escherichia coli
Experimental: as §1

[12] = tested on: K. pneumoniae (ATCC BAA 2342); assay: Checkerboard synergy assay; assay type: cell-based, Klebsiella pneumoniae
Experimental: (§4) The bacteria culture was prepared and diluted as performed in Section 4.4. Then, the bacteria dilution was mixed with a different combination of DMPC-10B and the antibiotics in the 96-well plate. The wells only contained individual peptides or antibiotics were applied as reference controls. Similarly, the turbidity of each well in the plate was measured at OD 550 nm, after incubation at 37 °C for 24 h. The fractional inhibitory concentration index (FICI) of each combination was defined as follows: FICI=MIC of DMPC-10B in combination/MIC of DMPC-10B alone+MIC of antibiotic in combination/MIC of antibiotic alone
(§5) The profile of the combination was interpreted as synergistic, additive, and antagonistic for FICI ≤ 0.5, 0.5 < FICI ≤ 4.0, and FICI > 4.0, respectively.

[13] = tested on: K. pneumoniae (ATCC BAA 1705); assay: Checkerboard synergy assay; assay type: cell-based, Klebsiella pneumoniae
Experimental: as §4, §5

[14] = tested on: MRSA (NCTC 12493) biofilm; assay: Eradication of mature biofilm (crystal violet); assay type: cell-based, methicillin-resistant S. aureus; conditions: high concentrations ranging from 32 to 128 µM, 24 h treatment at 37 °C
Experimental: as §2

[15] = tested on: K. pneumoniae (ATCC 43816) biofilm; assay: Eradication of mature biofilm (crystal violet); assay type: cell-based, Klebsiella pneumoniae; conditions: at 64 µM and 128 µM, compared with S. aureus and MRSA
Experimental: as §2

[16] = tested on: S. aureus (NCTC 10788) biofilm; assay: Inhibition of biofilm formation (crystal violet); assay type: cell-based, Staphylococcus aureus; conditions: 37 °C 24–48 h, crystal violet 595 nm
Experimental: as §2

chymotrypsin = chymotrypsin (Bos taurus, UniProt P00766); assay: Enzyme stability assay, chymotrypsin; assay type: in vitro ADME; conditions: peptide in PBS, peptide:chymotrypsin 100:1 (m/m)
Experimental: as §3

MRSA (NCTC 12493) = assay type: cell-based, methicillin-resistant S. aureus
Experimental: as §6

[17] = tested on: MRSA (NCTC 12493) biofilm; assay: Inhibition of biofilm formation (crystal violet); assay type: cell-based, methicillin-resistant S. aureus; conditions: 37 °C 24–48 h, crystal violet 595 nm
Experimental: as §2

E. coli (NCTC 10418) [18] = assay type: cell-based, Escherichia coli; remark: listed apart in the source
Experimental: as §6

SMILES: CC(C)C[C@@H](NC(=O)[C@H](C)N)C(=O)N[C@@H](Cc1c[nH]c2ccccc12)C(=O)N[C@H](CCCCN)C(=O)N[C@H](CCCCN)C(=O)N[C@H](CC(C)C)C(=O)N[C@H](CC(C)C)C(=O)N[C@H](CCCCN)C(=O)N[C@H](CCCCN)C(=O)N[C@@H](CC1CCCCC1)C(N)=O [DMPC-10B] (H-A[dL]W[dK][dK][dL][dL][dK][dK][Cha]-NH2; N-terminus assumed)
- MIC with CaCl2 5 mM (S. aureus (NCTC 10788) [1]): 64 µM
- MIC with FBS 10% (S. aureus (NCTC 10788) [1]): 8 µM
- MIC with MgCl2 5 mM (S. aureus (NCTC 10788) [1]): 64 µM
- MIC with NaCl 150 mM (S. aureus (NCTC 10788) [1]): 64 µM
- MIC with NaCl 375 mM (S. aureus (NCTC 10788) [1]): 128 µM
- MIC, no additive (S. aureus (NCTC 10788) [1]): 4 µM (≈ 5.12 µg/mL)
- MBC ([2]; ATCC 43816, pH 7.4): 8 µM (≈ 10.2 µg/mL)
- MIC ([2]; ATCC 43816, pH 7.4): 8 µM (≈ 10.2 µg/mL)
- MBC ([3]; ATCC 27853, pH 7.4): 32 µM (≈ 41 µg/mL)
- MIC ([3]; ATCC 27853, pH 7.4): 4 µM (≈ 5.12 µg/mL)
- death of healthy larvae [4]: did not induce any death
- biofilm eradication effect [5]: around 50%
- time within which trypsin could not degrade the peptide completely (trypsin): > 2 h
- MBC (E. faecalis (NCTC 12697); NCTC 12697, pH 7.4): 64 µM (≈ 81.9 µg/mL)
- MIC (E. faecalis (NCTC 12697); NCTC 12697, pH 7.4): 64 µM (≈ 81.9 µg/mL)
- MBC ([6]; ATCC BAA 2342, pH 7.4): 16 µM (≈ 20.5 µg/mL)
- MIC ([6]; ATCC BAA 2342, pH 7.4): 16 µM (≈ 20.5 µg/mL)
- inhibition of biofilm formation [7]: less potent
- survival of infected larvae [8]: around 70%
- MBC (S. aureus (NCTC 10788) [9]; NCTC 10788, pH 7.4): 16 µM (≈ 20.5 µg/mL)
- MIC (S. aureus (NCTC 10788) [9]; NCTC 10788, pH 7.4): 4 µM (≈ 5.12 µg/mL)
- MBC ([10]; ATCC BAA 1705, pH 7.4): 32 µM (≈ 41 µg/mL)
- MIC ([10]; ATCC BAA 1705, pH 7.4): 32 µM (≈ 41 µg/mL)
- MIC with CaCl2 5 mM (E. coli (NCTC 10418) [11]): 32 µM
- MIC with FBS 10% (E. coli (NCTC 10418) [11]): 4 µM
- MIC with MgCl2 5 mM (E. coli (NCTC 10418) [11]): 32 µM
- MIC with NaCl 150 mM (E. coli (NCTC 10418) [11]): 16 µM
- MIC with NaCl 375 mM (E. coli (NCTC 10418) [11]): 32 µM
- MIC, no additive (E. coli (NCTC 10418) [11]): 2 µM (≈ 2.56 µg/mL)
- combined MIC of DMPC-10B with norfloxacin ([12]; first value): 16/16
- individual MIC of DMPC-10B (norfloxacin checkerboard) ([12]; second value): 16/16
- combined MIC of DMPC-10B with norfloxacin ([13]; first value): 32/32
- individual MIC of DMPC-10B (norfloxacin checkerboard) ([13]; second value): 32/32
- biofilm eradication effect [14]: around 50%
- biofilm eradication effect [15]: more potent effects
- inhibition of biofilm formation [16]: effectively inhibited
- stability to hydrolysis by chymotrypsin (chymotrypsin; 120 min, RP-HPLC peak area, three replicates): exhibited resistance to the hydrolysis
- time within which L-Trp site was not cleaved by chymotrypsin (chymotrypsin; RP-HPLC): > 2 h
- MBC (MRSA (NCTC 12493); NCTC 12493, pH 7.4): 8 µM (≈ 10.2 µg/mL)
- MIC (MRSA (NCTC 12493); NCTC 12493, pH 7.4): 4 µM (≈ 5.12 µg/mL)
- inhibition of biofilm formation [17]: effectively inhibited
- MBC (E. coli (NCTC 10418) [18]; NCTC 10418, pH 7.4): 4 µM (≈ 5.12 µg/mL)
- MIC (E. coli (NCTC 10418) [18]; NCTC 10418, pH 7.4): 2 µM (≈ 2.56 µg/mL)

SMILES: CNC(C)C1CCC(N)C(OC2C(N)CC(N)C(OC3OCC(C)(O)C(NC)C3O)C2O)O1 (stereo not drawn) [Gentamicin, reference compound]
- MIC of antibiotic ([2]; K. pneumoniae (ATCC 43816), broth-dilution, MHB pH 7.4, 37 °C, positive control): 1/2.09 µg/mL
- MIC of antibiotic ([3]; P. aeruginosa (ATCC 27853), broth-dilution, MHB pH 7.4, 37 °C, positive control): 0.25/0.52 µg/mL
- MIC of antibiotic (E. faecalis (NCTC 12697); E. faecalis (NCTC 12697), broth-dilution, MHB pH 7.4, 37 °C, positive control): 4/8.38 µg/mL
- MIC of antibiotic ([6]; K. pneumoniae (ATCC BAA 2342), broth-dilution, MHB pH 7.4, 37 °C, positive control): 4/8.38 µg/mL
- MIC of antibiotic (S. aureus (NCTC 10788) [9]; S. aureus (NCTC 10788), broth-dilution, MHB pH 7.4, 37 °C, positive control): <0.0625/<0.13 µg/mL
- MIC of antibiotic ([10]; K. pneumoniae (ATCC BAA 1705), broth-dilution, MHB pH 7.4, 37 °C, positive control): 2/4.19 µg/mL
- MIC of antibiotic (MRSA (NCTC 12493); MRSA (NCTC 12493), broth-dilution, MHB pH 7.4, 37 °C, positive control): 0.125/0.26 µg/mL
- MIC of antibiotic (E. coli (NCTC 10418) [18]; E. coli (NCTC 10418), broth-dilution, MHB pH 7.4, 37 °C, positive control): 1/2.09 µg/mL
